Test system: relapsed or refractory SCLC and other solid tumors
Experiment: phase I dose-escalation study, tumor response (RECIST)
Format: in vivo, human
Description: This example illustrates a phase I dose-escalation study to evaluate the safety, pharmacokinetics, and preliminary efficacy of navitoclax in subjects with relapsed or refractory SCLC and other solid tumors. This phase I study of navitoclax, a novel inhibitor of Bcl-2 family proteins, was designed to evaluate safety, pharmacokinetics, and preliminary efficacy in subjects with small cell lung cancer (SCLC) or other solid tumors.
Subjects enrolled to intermittent dosing cohorts received navitoclax on Days 1-14 followed by 7 days off. Subjects on continuous dosing cohorts received a one week lead-in dose of 150 mg followed by continuous daily administration of navitoclax. Blood samples were collected for pharmacokinetic analyses, biomarker analyses, and platelet monitoring.
Subjects included histologically documented SCLC or other non-hematologic malignancies, age ≧18, Eastern Cooperative Oncology Group performance status (ECOG PS) of ≦2, measurable disease by Response Evaluation Criteria in Solid Tumors (RECIST 1.0), and had received at least one prior chemotherapy treatment with documented progression. Subjects with brain metastases were included if they had surgery and/or radiation therapy followed by 21 days of stable neurologic function and stable disease by imaging prior to the first dose of study drug. Additional inclusion criteria included adequate bone marrow, renal and hepatic function per local laboratory reference range, non-pregnant status, and a life expectancy of ≧90 days.
Subjects were evaluated with history, physical exam, vital signs, complete blood count, chemistries, urinalysis and ECOG PS weekly through C2 and on D1 of each subsequent cycle. ECG and 2D-ECHO were obtained on C1D-3, C1D14, C3D1, C3D14, and end of study. Platelet counts were obtained on D-3 through 14 of C1, and weekly through each subsequent cycle. Lymphocyte enumeration was performed at screening, C1D14, at the end of C4, and at the end of every 3rd cycle thereafter. Radiographic tumor assessments were performed at baseline, after the 2nd and 4th cycles and after every 3 cycles thereafter.

[1] = 47 enrolled, 38 evaluable for response

CC1(C)CCC(c2ccc(Cl)cc2)=C(CN2CCN(c3ccc(C(=O)NS(=O)(=O)c4ccc(NC(CCN5CCOCC5)CSc5ccccc5)c(S(=O)(=O)C(F)(F)F)c4)cc3)CC2)C1 (stereo in doubt) [navitoclax, N-(4-(4-(2-(4-chlorophenyl)-5,5-dimethyl-1-cyclohex-1-en-1-yl)methyl)pip-erazin-1-yl)benzoyl)-4-(((1R)-3-(morpholin-4-yl)-1-((phenylsulfanyl)methyl)propyl)amino)-3-((trifluoromethyl)sulfonyl)benzenesulfonamide]
subjects with partial response [1]: One | subjects with stable disease [1]: 7 | duration of partial response (one subject, remains on study): over 26 months

Reference: patent US8748108B2, “Biomarkers for identifying patient classes” (AbbVie Inc., priority 2006, dated 2014)
